From publication PMC2621068 (Neuropeptides, 2008)
Values joined by “and” are separate entries in the source; they are usually repeats but may differ in a detail not shown here. Identical values can stand only once.

Columns and labels:
female Kuming mice = details: mouse, in vivo
NMDAR [1] = details: cited from earlier work
Kuming mice [2] = details: mouse, in vivo
female mice = assay type: in vivo, mouse; details: for paw withdrawal latency as % of pre-administration values: mouse, in vivo
NMDAR [3] = details: cited from earlier work; remark: listed apart in the source
Kuming mice [4] = details: mouse, in vivo; for edematogenic response after subcutaneous peptide (in words): sc
Kuming mice [5] = assay type: in vivo, mouse; details: for paw biting/licking behaviors after subcutaneous peptide (in words): mouse, in vivo, sc; for first phase response of the formalin test (in words) / second phase response of the formalin test (in words): n = 8
mice [6] = details: mouse, in vivo
Kuming mice [7] = assay type: in vivo, mouse; details: for number of abdominal contortions: mouse, in vivo; for effect on writhing responses (in words): n = 8
mice [8] = details: mouse, in vivo; cited from earlier work
[9] = in vivo; cited from earlier work

Substance | Paw withdrawal latency after peptide administration, 30 min (female Kuming mice) | Paw withdrawal latency after peptide administration, 90 min (female Kuming mice) | Paw withdrawal latency after peptide administration, 150 min (female Kuming mice) | Paw withdrawal latency after peptide administration, 240 min (female Kuming mice) | Paw withdrawal latency before peptide administration (female Kuming mice) | antinociception in the hot-plate test (in words) (female Kuming mice) | IC50 (NMDAR [1]) [nM] | Increase in paw width (Kuming mice [4]) [mm] | Injected paw width, after formalin injection (Kuming mice [4]) [mm] | Injected paw width, before formalin injection (Kuming mice [4]) [mm] | first phase response of the formalin test (in words) (Kuming mice [5]) | second phase response of the formalin test (in words) (Kuming mice [5]) | effect on writhing responses (in words) (Kuming mice [7]) | also measured
GEγγLQγNQγLIRAKSN-NH2 [con-G[γ14A]] | 10.0 ± 3.3 s | 20.4 ± 14.2 s | ^ˆ25.4 ± 9.3 s | ^ˆ22.8 ± 8.6 s | 11.3 ± 1.5 s | ineffective at antinociception at all time points examined | 230 | – | – | – | – | – | – | –
GEγγLQγNQγLIRAKYN-NH2 [con-G[S16Y]] | – | – | – | – | 13.4 ± 3.1 s and 9.0 ± 2.1 s | highest antinociceptive activity | 140 | 0.76 ± 0.05 | 2.33 ± 0.05 | 1.57 ± 0.03 | significantly reduced the time spent responding to the afflicted paw | highly effective in reducing the responses to the afflicted paw | significantly effective in modulating responses to the acid stimulus | day 3 paw diameter after peptide injection (Kuming mice [2]): 2.26 ± 0.058 mm; day 3 paw diameter before peptide injection (Kuming mice [2]): 2.36 ± 0.039 mm; paw withdrawal latency as % of pre-administration values (female mice): 80%; increase of paw withdrawal latency compared to the day 3 controls (female mice; n = 8): ~2 s; share of peptide associated with a low-affinity, non-receptor site (NMDAR [3]): approximately 80%; edematogenic response after subcutaneous peptide (in words) (Kuming mice [4]): nor did they reduce the edematogenic response; paw biting/licking behaviors after subcutaneous peptide (in words) (Kuming mice [5]): did not significantly diminish paw biting/licking behaviors; motor impairment in the rotarod test, comparison of the two peptides (in words) (mice [6]): reverse effect; motor toxicity in the rotarod test relative to saline (in words) (mice [6]): some toxicity; rotarod stay time, 60 min versus 240 min test times (in words) (mice [6]): no significant differences; number of abdominal contortions (Kuming mice [7]): 6.4 ± 4.6; increase in potency in the [3H]MK-801 binding assay compared to con-G (NMDAR [1]): 3.5 fold
GEγγLQKNQγLIRγKSN-NH2 [con-G[γ7K]] | 11.9 ± 4.3 s and 21.5 ± 12.5 s | – | – | – | 14.9 ± 3.5 s and 15.1 ± 3.9 s | – | 220 | – | – | – | significantly reduced the time spent responding to the afflicted paw | – | failed to attenuate writhing responses | –
conantokin-G [con-G] | 12.2 ± 4.5 s and 12.6 ± 12.5 s | – | – | – | 11.6 ± 2.1 s and 11.6 ± 2.5 s | – | 480 | 0.83 ± 0.03 | 2.38 ± 0.03 | 1.55 ± 0.02 | significantly reduced the time spent responding to the afflicted paw | highly effective in reducing the responses to the afflicted paw | – | paw withdrawal latency as % of pre-administration values (female mice): 80%; increase of paw withdrawal latency compared to the day 3 controls (female mice; n = 8): approximately 1 s; edematogenic response after subcutaneous peptide (in words) (Kuming mice [4]): nor did they reduce the edematogenic response; paw biting/licking behaviors after subcutaneous peptide (in words) (Kuming mice [5]): did not significantly diminish paw biting/licking behaviors; percent inhibition of responses, first phase of the formalin test (mice [8]): 25-35%; number of abdominal contortions (Kuming mice [7]): 8.3 ± 6.0; median toxic dose, rotarod test [9]: ca. 300 pmol
con-G[N8A]: NR2B-selective con-G variant (GEEELQEAQELIREKSN; not fully specified; Conantokin-G; UniProt P07231 81-97, looked up, variant N8A) | 11.6 ± 4.2 s | 13.5 ± 4.8 s | 12.6 ± 2.5 s | 13.8 ± 3.1 s | 11.1 ± 2.5 s | ineffective at antinociception at all time points examined | 490 | – | – | – | – | – | – | –
conantokin-T [con-T] | 13.1 ± 3.1 s | 15.4 ± 4.8 s | 16.5 ± 4.6 s | 16.8 ± 4.5 s | 11.9 ± 2.9 s | without effect | 400 | – | – | – | – | – | – | percent inhibition of responses, first phase of the formalin test (mice [8]): 25-35%; median toxic dose, rotarod test [9]: ca. 300 pmol
GEγγLGKAQALIRAAYA-NH2 [Ala-con-G] | 20.3 ± 8.6 s and 11.9 ± 3.4 s | 20.9 ± 5.7 s and 22.4 ± 9.5 s | 24.6 ± 10.4 s and 17.1 ± 7.5 s | 16.1 ± 5.0 s and 20.0 ± 16.1 s | 15.3 ± 3.0 s and 11.3 ± 1.9 s | ineffective at antinociception at all time points examined | 180 | 0.97 ± 0.05 | 2.56 ± 0.05 | 1.60 ± 0.02 | significantly reduced the time spent responding to the afflicted paw | neither Ala-con-G nor con-R[1-17] provided antinociception | failed to attenuate writhing responses | effect on withdrawal latencies in the CFA model (in words) (female mice; n = 8): failed to alter withdrawal latencies; components of binding to adult rat brain sections (in words) (NMDAR [3]): only the high-affinity NMDAR-specific component of binding
